In paper PMC11256326, “Discovery of Heparin Mimetic, Potent, and Selective Inhibitors of Human Clotting Factor XIIIa” (ACS Omega, 2024):
Values joined by “and” are separate entries in the source; they are usually repeats but may differ in a detail not shown here. Identical values can stand only once. Like-named read-outs stand apart in the source and are kept apart here. Marks after values point to notes of the source that are not given here.

Assays:
FXIIIa [1] = target: T1, FXIIIa (Homo sapiens, UniProt P00488); assay: bisubstrate, fluorescence-based trans-glutamination assay; type: biochemical; conditions: for HS (Hill slope), FXIIIa inhibition: logistic fit eq 1; for IC50: pH 7.4, 37 °C, substrates dansylcadaverine and N,N-dimethylcasein
T1 construct: purchased Haematologic Technologies; host or cells: human plasma
T1 sequence (P00488 39-732 limits assumed): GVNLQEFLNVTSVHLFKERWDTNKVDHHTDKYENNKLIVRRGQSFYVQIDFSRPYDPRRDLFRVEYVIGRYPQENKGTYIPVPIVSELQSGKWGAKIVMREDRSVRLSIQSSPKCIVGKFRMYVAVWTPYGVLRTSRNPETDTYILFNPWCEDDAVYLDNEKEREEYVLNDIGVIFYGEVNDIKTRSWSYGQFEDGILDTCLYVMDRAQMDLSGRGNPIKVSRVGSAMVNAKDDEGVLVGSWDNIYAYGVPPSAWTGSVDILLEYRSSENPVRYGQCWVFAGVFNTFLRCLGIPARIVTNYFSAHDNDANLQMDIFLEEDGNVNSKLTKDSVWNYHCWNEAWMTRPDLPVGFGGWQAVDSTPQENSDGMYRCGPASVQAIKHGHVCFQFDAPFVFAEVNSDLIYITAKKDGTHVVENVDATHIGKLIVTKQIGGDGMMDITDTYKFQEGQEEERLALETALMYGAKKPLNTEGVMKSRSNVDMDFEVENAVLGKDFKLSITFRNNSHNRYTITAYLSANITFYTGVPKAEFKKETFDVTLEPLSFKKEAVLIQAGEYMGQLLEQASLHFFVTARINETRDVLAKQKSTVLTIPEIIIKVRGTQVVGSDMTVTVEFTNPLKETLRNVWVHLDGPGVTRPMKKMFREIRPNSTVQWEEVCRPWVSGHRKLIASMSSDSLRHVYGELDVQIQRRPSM
From the text: A series of 27 sulfonated molecules (Figure 3) was screened for inhibition of human FXIIIa using a modified bisubstrate, fluorescence-based trans-glutamination assay, as described earlier.[36],[49] Dansylcadaverine and N,N-dimethylcasein were used as two substrates, which upon FXIIIa-dependence conjugation show a marked increase in fluorescence at 550 nm (λEX = 360 nm). The sulfonated molecules were structurally diverse given their number of anionic groups (mono- (inhibitors 24–27) to octa- (inhibitor 9)), number of building blocks (monomeric (molecules 26–29) to […] (inhibitor 14)), and the nature of the building block of oligomeric derivatives (benzamide derivatives (inhibitors 3–10, 24, and 25), triazine derivatives (inhibitors 11–14), and azo-naphthalene derivatives (molecules 15–22), and ureido-naphthalene derivative (23)) (Figure 3).
To measure the potency and efficacy of these inhibitors, the dose-dependence of FXIIIa inhibition was evaluated using logistic eq 1 (Table 1). The potency of inhibition refers to the IC50 (x-axis), whereas the efficacy refers to the net change in residual FXIIIa activity (ΔY%) (y-axis). Iodoacetamide, a nonselective inhibitor of thiol-containing enzymes, was used as a positive control.
To evaluate the effect of sulfonated molecules on human FXIIIa, a bisubstrate, fluorescence-based trans-glutamination assay was performed as we reported previously.[36],[49] Generally, 1 μL of the sulfonated molecule was diluted with 87 μL of pH 7.4 buffer (50 mM Tris-HCl, 1 mM CaCl2, 100 mM NaCl, and 2 mg/mL N,N-dimethylcasein) and 5 μL dithiothreitol (20 mM) at 37 °C followed by the addition of 2 μL of human FXIIIa (0.3 μM) and incubation for 10 min. The activity of FXIIIa was monitored following the addition of 5 μL of dansylcadaverine (2 mM) by measuring the initial rate of increase in fluorescence emission (λEx. = 360 nm and λEm. = 550 nm). Relative residual FXIIIa activity at each concentration of the inhibitor was calculated from the ratio of FXIIIa activity in the presence and absence of the inhibitor. Logistic eq 1 was used to fit the concentration dependence of residual FXIIIa activity to obtain the potency (IC50) and efficacy (ΔY%) of inhibition. [drawing 1] 1
This equation defines Y as the ratio of residual FXIIIa activity with the inhibitor present compared to its absence. YM represents the maximum possible value of residual FXIIIa activity, while YO denotes the minimum possible value. IC50 signifies the concentration of the inhibitor causing 50% enzyme activity inhibition, and HS represents the Hill slope. Determination of YM, YO, IC50, and HS values is achieved through nonlinear curve fitting of the experimental data.

normal human plasma [2] = assay: prothrombin time (PT) of normal human plasma; type: biochemical; conditions: in vitro
Method: (§1) To further evaluate the selectivity as well as the potential toxicity of inhibitors, we studied their effects on the clotting times of normal human plasma as well as their effects on the proliferation of three cell lines. On the one hand, the inhibitors’ effects on activated partial thromboplastin time (APTT) and prothrombin time (PT) were measured, as described earlier under in vitro conditions,[52]−[55] using variable concentrations (0–2000 μM) (Table 3). […] On the other hand, the antiproliferative properties of inhibitors 13 and 16 were evaluated in three cell lines of breast (MCF-7), intestine (CaCo-2), and kidney (HEK-293) (Figure 5B), as described earlier.[56] […] Overall, inhibitor 16 can be considered for further development as a potent, selective, and nontoxic inhibitor of human FXIIIa.
(§2) Clotting times, including activated partial thromboplastin time (APTT) and prothrombin time (PT), were assessed in normal human plasma utilizing the BBL Fibrosystem fibrometer from Becton–Dickinson, as detailed in previous publications.[51]−[54] For the PT assay, thromboplastin-D was dissolved in 4 mL of highly purified water and then warmed to 37 °C. Subsequently, 10 μL of the inhibitor was added to 90 μL of normal human plasma and incubated for 30 s. Following this, 200 μL of prewarmed PT reagent was added, and the clotting time was recorded. In the APTT assay, 10 μL of the inhibitor was combined with 90 μL of normal human plasma and 100 μL of prewarmed APTT reagent (0.2% ellagic acid). After incubation for 4 min at 37 °C, clotting was initiated by adding 100 μL of prewarmed 0.025 M CaCl2, and the clotting time was documented. Multiple concentrations of each molecule were employed in both assays to establish a concentration vs effect curve.

normal human plasma [3] = assay: activated partial thromboplastin time (APTT) of normal human plasma; type: biochemical; conditions: normal human plasma, in vitro
Method: as §1, §2

FXIIIa [4] = target: T1, FXIIIa; parameters: method as in PLoS One 11(7): e0160189; conditions: ref PLoS One 11(7): e0160189; cited from earlier work

SMILES | HS (Hill slope), FXIIIa inhibition (FXIIIa [1]) | IC50 (FXIIIa [1]) | also measured
NC(=O)CI [Iodoacetamide, reference compound] | 0.8 ± 0.2 | ~2.9 µM and 2.9 µM | 
O=C(Nc1cccc(C(=O)Nc2cc(C(=O)Nc3ccc(S(=O)(=O)O)c4cc(S(=O)(=O)O)cc(S(=O)(=O)O)c34)ccc2F)c1)Nc1cccc(C(=O)Nc2cc(C(=O)Nc3ccc(S(=O)(=O)O)c4cc(S(=O)(=O)O)cc(S(=O)(=O)O)c34)ccc2F)c1 [compound 4] |  | > 50 µM | FXIIIa inhibition at the highest concentration tested (FXIIIa [1]): did not inhibit
Cc1ccc(C(=O)Nc2ccc(CP(=O)(O)O)cc2CP(=O)(O)O)cc1NC(=O)c1cccc(NC(=O)Nc2cccc(C(=O)Nc3cc(C(=O)Nc4ccc(CP(=O)(O)O)cc4CP(=O)(O)O)ccc3C)c2)c1 [compound 6] |  | > 1000 µM | 
O=C(Nc1ccc2c(O)cc(S(=O)(=O)O)cc2c1)Nc1ccc2c(O)cc(S(=O)(=O)O)cc2c1 [compound 23] |  |  | FXIIIa inhibition at the highest concentration tested (FXIIIa [1]): did not inhibit
O=c1c(OS(=O)(=O)O)c(-c2ccc(OS(=O)(=O)O)c(OS(=O)(=O)O)c2)oc2cc(OS(=O)(=O)O)cc(OCCOc3cc(-c4oc5cc(OS(=O)(=O)O)cc(OCCOc6cc(OS(=O)(=O)O)cc7oc(-c8ccc(OS(=O)(=O)O)c(OS(=O)(=O)O)c8)c(OS(=O)(=O)O)c(=O)c67)c5c(=O)c4OS(=O)(=O)O)ccc3OS(=O)(=O)O)c12 [compound 1, reference compound] |  |  | fold less potent than inhibitor 16 against FXIIIa (FXIIIa [1]): at least 15 fold; HS (Hill slope), FXIIIa inhibition (FXIIIa [4]): 0.9 ±0.2
Cc1ccc(C(=O)Nc2cc(S(=O)(=O)O)cc3ccc(S(=O)(=O)O)cc23)cc1NC(=O)Nc1cc(C(=O)Nc2cc(S(=O)(=O)O)cc3ccc(S(=O)(=O)O)cc23)ccc1C [compound 8] |  | > 50 µM | FXIIIa inhibition at the highest concentration tested (FXIIIa [1]): did not inhibit
Cc1ccc(C(=O)Nc2ccc(S(=O)(=O)O)c3cc(S(=O)(=O)O)cc(S(=O)(=O)O)c23)cc1NC(=O)c1cccc(NC(=O)Nc2cccc(C(=O)Nc3cc(C(=O)Nc4ccc(S(=O)(=O)O)c5cc(S(=O)(=O)O)cc(S(=O)(=O)O)c45)ccc3C)c2)c1 [compound 3] | 1.0 ± 0.2 | 77.2 ± 17.1 µM | 
O=C(Nc1cccc(C(=O)Nc2ccc(S(=O)(=O)O)c3cc(S(=O)(=O)O)cc(S(=O)(=O)O)c23)c1)Nc1cccc(C(=O)Nc2ccc(S(=O)(=O)O)c3cc(S(=O)(=O)O)cc(S(=O)(=O)O)c23)c1 [compound 7] | 0.9 ± 0.2 | 162 ± 37.1 µM | 
O=c1c(OS(=O)(=O)O)c(-c2ccc(OS(=O)(=O)O)c(OS(=O)(=O)O)c2)oc2cc(OS(=O)(=O)O)cc(OCCCOc3cc(-c4oc5cc(OS(=O)(=O)O)cc(OCCCOc6cc(OS(=O)(=O)O)cc7oc(-c8ccc(OS(=O)(=O)O)c(OS(=O)(=O)O)c8)c(OS(=O)(=O)O)c(=O)c67)c5c(=O)c4OS(=O)(=O)O)ccc3OS(=O)(=O)O)c12 [compound 2] |  |  | fold less potent than inhibitor 16 against FXIIIa (FXIIIa [1]): at least 15 fold; HS (Hill slope), FXIIIa inhibition (FXIIIa [4]): 1.1±0.5; IC50 (FXIIIa [4]): 118 ± 50 µM
O=C(Nc1ccc(C(=O)Nc2ccc(C(=O)Nc3ccc(S(=O)(=O)O)c4cc(S(=O)(=O)O)cc(S(=O)(=O)O)c34)cc2)cc1)Nc1ccc(C(=O)Nc2ccc(C(=O)Nc3ccc(S(=O)(=O)O)c4cc(S(=O)(=O)O)cc(S(=O)(=O)O)c34)cc2)cc1 [compound 5] | 1.5 ± 0.8 |  | 

Second part, led by results:

HS (Hill slope), FXIIIa inhibition (FXIIIa [1]) | IC50 (FXIIIa [1]) | SMILES | also measured
0.9 ± 0.2 | 14.7 ± 3 µM | Cc1[nH]n(-c2cc(Cl)c(S(=O)(=O)O)cc2Cl)c(=O)c1/N=N/c1cc(Nc2nc(Cl)nc(Nc3ccc(S(=O)(=O)O)cc3)n2)ccc1S(=O)(=O)O [compound 11] | PT2X (concentration required to double PT) (normal human plasma [2]): >1667 µM; APTT2X (concentration required to double APTT) (normal human plasma [3]): 1102.72 ± 93 ^b μM
 | > 50 µM | O=C(Nc1cc(C(=O)Nc2ccc(S(=O)(=O)O)cc2)cc(C(=O)Nc2ccc(S(=O)(=O)O)cc2)c1)Nc1cc(C(=O)Nc2ccc(S(=O)(=O)O)cc2)cc(C(=O)Nc2ccc(S(=O)(=O)O)cc2)c1 [compound 10] | FXIIIa inhibition at the highest concentration tested (FXIIIa [1]): did not inhibit
1.5 ± 0.3 | 15.7 ± 2.1 µM | O=S(=O)(O)c1ccc(/N=N/c2ccc(/N=N/c3c(O)c(S(=O)(=O)O)cc4cc(S(=O)(=O)O)ccc34)c(S(=O)(=O)O)c2)cc1 [compound 17] | PT2X (concentration required to double PT) (normal human plasma [2]): 868.96 ± 91 µM; APTT2X (concentration required to double APTT) (normal human plasma [3]): 681.54 ± 65 µM
0.9 ± 0.2 | 286 ± 71.5 µM | O=C(Nc1cc(C(=O)Nc2ccc(S(=O)(=O)O)cc2S(=O)(=O)O)cc(C(=O)Nc2ccc(S(=O)(=O)O)cc2S(=O)(=O)O)c1)Nc1cc(C(=O)Nc2ccc(S(=O)(=O)O)cc2S(=O)(=O)O)cc(C(=O)Nc2ccc(S(=O)(=O)O)cc2S(=O)(=O)O)c1 [compound 9] | 
1.0 ± 0.1 | 23.6 ± 1.5 µM | CN(c1ccc2c(O)c(/N=N/c3ccccc3S(=O)(=O)O)c(S(=O)(=O)O)cc2c1)c1nc(Cl)nc(Nc2cccc(S(=O)(=O)O)c2)n1 [compound 12] | APTT2X (concentration required to double APTT) (normal human plasma [3]): 2067.59 ± 200 µM
1.0 ± 0.3 | 16.5 ± 5.3 µM | CC(=O)Nc1ccc2cc(S(=O)(=O)O)c(/N=N/c3ccc(S(=O)(=O)CCOS(=O)(=O)O)cc3)c(O)c2c1 [compound 15] | APTT2X (concentration required to double APTT) (normal human plasma [3]): >1667 µM
